Reference: paper PMC11083775, “Synthesis, In Silico and Kinetics Evaluation of N-(β-D-glucopyranosyl)-2-arylimidazole-4(5)-carboxamides and N-(β-D-glucopyranosyl)-4(5)-arylimidazole-2-carboxamides as Glycogen Phosphorylase Inhibitors” (International Journal of Molecular Sciences, 2024)
Read-outs that look alike come from different tables or passages of the source.

Columns and labels:
[1] = molecular target: T1, rabbit muscle glycogen phosphorylase b (rmGPb) (Oryctolagus cuniculus, UniProt P00489); assay: Kinetics of rabbit muscle GPb inhibition, assayed in the direction of glycogen synthesis; type: biochemical; conditions: 10 μg/mL enzyme, glucose-1-phosphate 4–40 mM, 1% glycogen, 1 mM AMP, at least three independent experiments, ± SD, read-out: Inhibition constant (Ki)
T1 sequence (P00489 1-843): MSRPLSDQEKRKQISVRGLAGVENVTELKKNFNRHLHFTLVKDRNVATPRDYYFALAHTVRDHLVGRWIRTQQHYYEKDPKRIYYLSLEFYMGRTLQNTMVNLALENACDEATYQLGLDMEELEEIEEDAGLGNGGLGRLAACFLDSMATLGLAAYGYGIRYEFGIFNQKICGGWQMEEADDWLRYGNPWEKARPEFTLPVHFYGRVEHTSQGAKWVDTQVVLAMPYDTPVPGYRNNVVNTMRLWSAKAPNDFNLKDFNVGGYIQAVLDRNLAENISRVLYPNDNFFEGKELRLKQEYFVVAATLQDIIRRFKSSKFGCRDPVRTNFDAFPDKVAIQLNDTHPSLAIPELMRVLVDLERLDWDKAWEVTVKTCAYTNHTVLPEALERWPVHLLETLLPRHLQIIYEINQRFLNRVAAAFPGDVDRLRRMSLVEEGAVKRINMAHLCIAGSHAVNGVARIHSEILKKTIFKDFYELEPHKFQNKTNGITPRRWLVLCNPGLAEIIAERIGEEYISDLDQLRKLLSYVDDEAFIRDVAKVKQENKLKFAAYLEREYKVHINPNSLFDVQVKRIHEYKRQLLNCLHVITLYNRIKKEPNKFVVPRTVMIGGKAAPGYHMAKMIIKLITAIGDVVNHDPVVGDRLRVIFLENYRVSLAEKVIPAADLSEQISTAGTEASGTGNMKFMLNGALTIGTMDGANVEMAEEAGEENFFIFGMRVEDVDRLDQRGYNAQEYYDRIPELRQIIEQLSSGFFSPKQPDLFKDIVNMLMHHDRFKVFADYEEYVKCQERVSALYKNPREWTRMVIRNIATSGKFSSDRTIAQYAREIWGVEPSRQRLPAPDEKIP
Description: Inhibitory constants (Ki) were determined for rabbit muscle glycogen phosphorylase. Enzyme activity was assayed in the direction of glycogen synthesis, as previously published. The experiments were performed using the rabbit muscle phosphorylase b (dephosphorylated, GPb) isoform. Kinetic data for the inhibition of GPb by the compounds were obtained in the presence of 10 μg/mL of the enzyme, varying the concentrations of α-D-glucose-1-phosphate (4–40 mM) and using constant concentrations (1%) of glycogen and AMP (1 mM). The enzymatic activities were presented in the form of a double reciprocal plot (Lineweaver–Burk). The plots were analysed using a non-linear data analysis program. The inhibitor constants (Ki) were determined using secondary plots, replotting the slopes from the Lineweaver–Burk plot against the inhibitor concentrations. The means of the standard errors for all calculated kinetic parameters averaged to less than 10% [40].

[2] = molecular target: T1, rabbit muscle glycogen phosphorylase b (rmGPb); conditions: cited from earlier work

| Ki [1] [µM] | SMILES | Ki [2] |
| --- | --- | --- |
| 10.4 ± 6.2 | O=C(N[C@@H]1O[C@H](CO)[C@@H](O)[C@H](O)[C@H]1O)c1cnc(-c2ccccc2)[nH]1 [Compound 1a, N-(β-D-Glucopyranosyl)-2-phenyl-1H-imidazole-4(5)-carboxamide] |  |
| 16.2 ± 8.1 | O=C(N[C@@H]1O[C@H](CO)[C@@H](O)[C@H](O)[C@H]1O)c1cnc(-c2cccc3ccccc23)[nH]1 [Compound 1b, N-(β-D-Glucopyranosyl)-2-(1-naphthyl)-1H-imidazole-4(5)-carboxamide] |  |
| 12.8 ± 3 | O=C(N[C@@H]1O[C@H](CO)[C@@H](O)[C@H](O)[C@H]1O)c1cnc(-c2ccc3ccccc3c2)[nH]1 [Compound 1c, N-(β-D-Glucopyranosyl)-2-(2-naphthyl)-1H-imidazole-4(5)-carboxamide] |  |
| 67.4 ± 9.7 | O=C(N[C@@H]1O[C@H](CO)[C@@H](O)[C@H](O)[C@H]1O)c1ncc(-c2ccccc2)[nH]1 [Compound 2a, N-(β-D-Glucopyranosyl)-4(5)-phenyl-1H-imidazole-2-carboxamide] |  |
| 4.1 ± 0.8 | O=C(N[C@@H]1O[C@H](CO)[C@@H](O)[C@H](O)[C@H]1O)c1ncc(-c2cccc3ccccc23)[nH]1 [Compound 2b, N-(β-D-Glucopyranosyl)-4(5)-(1-naphthyl)-1H-imidazole-2-carboxamide] |  |
| 3.3 ± 0.1 | O=C(N[C@@H]1O[C@H](CO)[C@@H](O)[C@H](O)[C@H]1O)c1ncc(-c2ccc3ccccc3c2)[nH]1 [Compound 2c, N-(β-D-Glucopyranosyl)-4(5)-(2-naphthyl)-1H-imidazole-2-carboxamide] |  |
|  | O=C(N[C@@H]1O[C@H](CO)[C@@H](O)[C@H](O)[C@H]1O)c1nc(-c2ccc3ccccc3c2)no1 [VIIIc] | no inh. |
|  | O=C(N[C@@H]1O[C@H](CO)[C@@H](O)[C@H](O)[C@H]1O)c1noc(-c2ccc3ccccc3c2)n1 [VIIc] | no inh. |
